{NH2} = code of the source, not defined here
Each substance was assayed on most abundant miRNAs in HEK293 cells (assay: miRNA inhibition by cocktail of 2'-O-methyl antisense oligoribonucleotides in HEK293 cells; seed match depletion/enrichment in down-/up-regulated transcripts (Affymetrix arrays)). Settings: antisense cocktail vs mock.
Format: cell-based, human
Experimental: All miRNAs are assumed to have U at position 1. p-values for 4 types of seeds, indicated below, were tested.
miRNAs are predominantly localized to the cytoplasm although a smaller fraction can be detected in nuclear extracts (Hwang et al., 2007; Meister et al., 2004; Pena et al., 2009; Robb et al., 2005; Weinmann et al., 2009). Our CCRs correspond to 84% exonic, 14% intronic, and 2% not assigned transcribed regions. This distribution is consistent with the predominant cytoplasmic function of miRNAs. Of the exonic CCRs, 50% distributed to the CDS, 46% to the 3′ UTR, and 4% to the 5′ UTR of mRNAs, with a specific enrichment in the 3′UTRs relative to what is expected based on the relative lengths of different transcript regions (FIG. 6D). The identification of such a large number of miRNA binding sites within the CDS was unexpected, because miRNA are believed to predominantly act on 3′ UTRs (Bartel, 2009), with a few reports providing evidence for miRNA-binding to 5′ UTR or CDS (Forman et al., 2008; Lytle et al., 2007; Orom et al., 2008; Tay et al., 2008). In order to determine if CCR-containing transcripts were indeed subject to miRNA-dependent regulation, we inhibited 25 of the most abundant miRNAs in HEK293 cells (FIG. 5C) with a cocktail of 2′-O-methyl-modified antisense oligoribonucleotides (FIG. 7A and see FIG. 28A-C for the efficiency of the individual antisense oligoribonucleotide). The change in relative mRNA abundance before and after miRNA inhibition was recorded by Affymetrix whole transcriptome array analysis.
miRNA duplexes and 2′-O-methyl oligoribonucletide transfections of HEK293 TREx Flp-In cells were carried out using Lipofectamine RNAiMAX (Invitrogen). Total RNA was isolated by TRIZOL RNA extraction. The RNA was further purified and Human Genome U133 Plus 2.0 Array (Affymetrix) analyses were performed as described previously (Landthaler et al., 2008).
CEL files of mRNA profiles from miRNA/2′O-methyl oligonucleotide and mocktransfected cell were loaded into the R software using the BioConductor affy package (Gentleman et al., 2004). The transcript probe set intensities were background-corrected, adjusted for non-specific binding and quantile normalized with the GCRMA algorithm (Wu, 2006). Probe sets with more than 6 of the 11 probes mapping ambiguously to the genome were discarded, as were probe sets that mapped to multiple genes. We then collected all probe sets matching a given gene, and we computed the logarithm of gene-level expression as the average of the log-intensity of probe sets mapping to that gene. For sequence analyses we also selected a representative transcript for each gene. This was the Genbank transcript with median 3′ UTR length corresponding to that gene. In total this procedure gave us expression measurements for 16,063 genes (and representative transcripts). The difference between the log-expression levels of a gene in samples treated with a cocktail of 2′-O-methyl oligoribonucleotides and mock transfected cells was taken as a measure of transcript stabilization upon miRNA inhibition.

| Substance | efficiency of the individual antisense oligoribonucleotide (inhibition of cognate miRNA) |
| --- | --- |
| let-7a: 2'-O-methyl antisense oligoribonucleotide AACUAUACAACCUACUACCUCA-NH2 (SEQ ID NO: 42) (all 2'-O-methyl, 3' {NH2}, backbone not given here) | Marginal |
| miR-10a: 2'-O-methyl antisense oligoribonucleotide CACAAAUUCGGAUCUACAGGGUA-NH2 (SEQ ID NO: 43) (all 2'-O-methyl, 3' {NH2}, backbone not given here) | did not seem to have inhibited their cognate miRNAs |
| miR-15a: 2'-O-methyl antisense oligoribonucleotide CGCCAAUAUUUACGUGCUGCUA (SEQ ID NO: 44) (all 2'-O-methyl, backbone not given here) | Worked |
| miR-17: 2'-O-methyl antisense oligoribonucleotide CUACCUGCACUGUAAGCACUUUG (SEQ ID NO: 47) (all 2'-O-methyl, backbone not given here) | Worked |
| miR-18a: 2'-O-methyl antisense oligoribonucleotide CUAUCUGCACUAGAUGCACCUUA-NH2 (SEQ ID NO: 48) (all 2'-O-methyl, 3' {NH2}, backbone not given here) | Worked |
| miR-19a: 2'-O-methyl antisense oligoribonucleotide UCAGUUUUGCAUAGAUUUGCACA (SEQ ID NO: 49) (all 2'-O-methyl, backbone not given here) | Worked |
| miR-21: 2'-O-methyl antisense oligoribonucleotide UCAACAUCAGUCUGAUAAGCUA (SEQ ID NO: 53) (all 2'-O-methyl, backbone not given here) | Marginal |
| miR-27a: 2'-O-methyl antisense oligoribonucleotide AACUAUACAAUCUACUACCUCA (SEQ ID NO: 55) (all 2'-O-methyl, backbone not given here) | did not seem to have inhibited their cognate miRNAs |
| miR-30a: 2'-O-methyl antisense oligoribonucleotide CUUCCAGUCGAGGAUGUUUACA-NH2 (SEQ ID NO: 56) (all 2'-O-methyl, 3' {NH2}, backbone not given here) | Worked |
| miR-92a: 2'-O-methyl antisense oligoribonucleotide ACAGGCCGGGACAAGUGCAAUA (SEQ ID NO: 58) (all 2'-O-methyl, backbone not given here) | Worked |
| miR-101: 2'-O-methyl antisense oligoribonucleotide UUCAGUUAUCACAGUACUGUA (SEQ ID NO: 60) (all 2'-O-methyl, backbone not given here) | Marginal |
| miR-103: 2'-O-methyl antisense oligoribonucleotide UCAUAGCCCUGUACAAUGCUGCU (SEQ ID NO: 61) (all 2'-O-methyl, backbone not given here) | Worked |
| miR-186: 2'-O-methyl antisense oligoribonucleotide AGCCCAAAAGGAGAAUUCUUUG (SEQ ID NO: 63) (all 2'-O-methyl, backbone not given here) | Didn't Work Well |
| miR-301b: 2'-O-methyl antisense oligoribonucleotide GCUUUGACAAUACUAUUGCACUG (SEQ ID NO: 64) (all 2'-O-methyl, backbone not given here) | Worked |

Same assay, conditions: antisense cocktail vs mock, listed as MiR-10a

| Substance | efficiency of the individual antisense oligoribonucleotide (inhibition of cognate miRNA) |
| --- | --- |
| miR-10a: 2'-O-methyl antisense oligoribonucleotide CACAAAUUCGGAUCUACAGGGUA-NH2 (SEQ ID NO: 43) (all 2'-O-methyl, 3' {NH2}, backbone not given here) | Didn't Work |

Same assay, conditions: antisense cocktail vs mock, listed as MiR-27a

| Substance | efficiency of the individual antisense oligoribonucleotide (inhibition of cognate miRNA) |
| --- | --- |
| miR-27a: 2'-O-methyl antisense oligoribonucleotide AACUAUACAAUCUACUACCUCA (SEQ ID NO: 55) (all 2'-O-methyl, backbone not given here) | Didn't Work |

Reference: patent publication US8841073B2, “Methods for identifying RNA segments bound by RNA-binding proteins or ribonucleoprotein complexes” (The Rockefeller University, priority 2008, dated 2014)
